The test system of this assay is DMS-114 complex spheroids with HUVEC/MSC, growth % test/control. As to the kind of experiment: Anticancer human tumor DMS-114 cell line growth inhibition [AhR].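 On all read-outs here: spheroids exposed to agents for 7 days before readout.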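 On viability, T/C: 100% = DMSO vehicle control wells.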 The conditions noted are these: for viability, T/C: stronger effect = lower value; for IC50: curve of compound. The text has this:
Multicellular complex tumor spheroid response to aryl hydrocarbon receptor antagonists in combination with a variety of drugs and investigational agents in selected tumor cell lines
The current study was undertaken to assess response to aryl hydrocarbon receptor antagonists in combination with standard-of-care drugs and investigational agents in solid tumor complex spheroid models. Complex spheroids include a stromal component modeled by human endothelial cells (HUVEC) and fibroblasts modeled by human mesenchymal stem cells (MSCs). The concentration ranges selected for each drug and investigational agent were based upon clinically achievable concentrations if the clinical Cmax of the agent was known.
Compounds. The drugs and investigational agents: BAY 2416964 (NSC825713), GNF351 (NSC835774), CH-223191 (NSC835775), CPI-455 (NSC825282), aza-TdCyd (NSC777586), decitabine (NSC127716), belinostat (NSC758774), entinostat (NSC756642), pevonedistat (NSC761192), tazemetostat (NSC777109), talazoparib (NSC765396), olaparib (NSC753686), selinexor (NSC780203), nedisertib (M3814, NSC802822), bortezomib (NSC756655), venetoclax (NSC766270), doxorubicin (NSC123127), elimusertib (BAY189344, NSC800525), ceralasertib (AZD6738, NSC777638), TAK-243 (NSC785004), alisertib (NSC759677), etoposide (NSC141540), topotecan (NSC609699), eribulin (NSC707389), gemcitabine (NSC613327), carboplatin (NSC241240), cisplatin (NSC119875), and SN-38 (NSC673596) were obtained from the National Cancer Institute (NCI) Developmental Therapeutics Program Chemical Repository (32). The FDA-approved anticancer drug set is available from the Developmental Therapeutics Program at https://dtp.cancer.gov/organization/dscb/obtaining/available plates.htm. […] The stock solutions were prepared in dimethyl sulfoxide (DMSO, Sigma-Aldrich, St. Louis, MO, cat. D2650), except for the platinum compounds which were prepared in saline (Quality Biological, Gaithersburg, MD, cat. 114-055-101), at 800-fold the tested concentration and stored at -70 degrees C prior to their use. All drugs and investigational agents were tested over a range starting from a high concentration at or near the clinical Cmax and decreasing in half-log increments. If the clinical Cmax for an agent had not been determined, the highest concentration tested was 10 microM (Table 1).
Cell Culture. All cells were maintained in an incubator at 37 degrees C and 5% CO2 with 95% humidity. The PDC lines were cultured according to standard operating procedures established by the NCI PDMR (https://pdmr.cancer.gov). Briefly, all PDCs were thawed and cultured in Matrigel-coated flasks prepared with a working solution of 1X Ham's F-12 nutrient mix, without supplementation (Invitrogen, Waltham, MA, cat. 11765054), 100 U/mL penicillin-streptomycin (Invitrogen, cat. 15140122), and 2.5% Matrigel (Corning Inc., Corning, NY, cat. 354248) for the first three passages. All PDCs were cultured in complete DMEM/F-12 media containing advanced DMEM/F-12 (Invitrogen, cat. 12634028), 4.9% defined fetal bovine serum, heat inactivated (HyClone Laboratories Inc., Logan, UT, cat. SH30070.03HI), 389 ng/mL hydrocortisone (Sigma-Aldrich, cat. H4001), 9.7 ng/mL human EGF recombinant protein (Invitrogen, cat. PHG0313), 23.4 microg/mL adenine (Sigma-Aldrich, cat. A2786), 97.3 U/mL penicillin-streptomycin (Invitrogen, cat. 15140122), 1.9 mM L-glutamine (Invitrogen, cat. 25030081), and 9.7 microM Y-27632 dihydrochloride (Tocris Bioscience, Bristol, United Kingdom, cat. 1254). The PDCs were cultured in complete DMEM/F12 media without 10 microM Y-27632 dihydrochloride for at least two passages prior to the screen. The established cell lines NCI-H1341 and […] were cultured in DMEM/F-12, HEPES (Invitrogen, cat. 11330032), 5% defined fetal bovine serum (HyClone Laboratories Inc., cat. SH30070.03), ITS premix universal culture supplement [insulin (5 microg/mL), transferrin (5 microg/mL), and selenious acid (5 ng/mL)] […]

Where “and” joins values, the source holds several entries; their conditions need not be identical. Equal values may be shown once.

In the case of `CC1COCCN1c1cc(C2(S(C)(=N)=O)CC2)nc(-c2ccnc3[nH]ccc23)n1` (stereo unspecified), the IC50 was 5.13 µM and > 10 µM and 5.46 µM. Also, the viability, T/C (compound 0.0316 µM) was 99.2% and 97.3% and 90.2%. The viability, T/C (compound 0.1 µM) is 114% and 106% and 101%. The viability, T/C (compound 0.316 µM) is 99.1% and 96.2% and 87.3%. The viability, T/C (compound 1 µM) was 98.6% and 98.9% and 78.1%. The viability, T/C (compound 3.16 µM) was 66.1% and 101% and 65.9%. Moreover, the viability, T/C (compound 10 µM) is 27.7% and 76.4% and 33.8%.

Regarding `O=C(C=Cn1cnc(-c2cc(C(F)(F)F)cc(C(F)(F)F)c2)n1)NNc1cnccn1`, the IC50 was 0.189 µM and 0.901 µM and 0.221 µM. For the same compound, the viability, T/C (compound 0.00949 µM) was 106% and 109% and 113%. Further, the viability, T/C (compound 0.03 µM) was 96.6% and 110% and 97.4%. The viability, T/C (compound 0.0949 µM) is 64.5% and 108% and 80.5%. In addition, the viability, T/C (compound 0.3 µM) is 40.7% and 87.3% and 37.6%. In addition, the viability, T/C (compound 0.949 µM) was 15% and 48.7% and 18.4%. Besides, the viability, T/C (compound 3 µM) was 5.6% and 17.9% and 7.48%.

For `O=C(c1cc(Cc2n[nH]c(=O)c3ccccc23)ccc1F)N1CCN(C(=O)C2CC2)CC1`, the IC50 is greater than 10 µM. Moreover, the viability, T/C (compound 0.0316 µM) was 106% and 111% and 105%. Further, the viability, T/C (compound 0.1 µM) is 110% and 111% and 95.4%. In addition, the viability, T/C (compound 0.316 µM) is 97.3% and 106% and 87.7%. Under “compound 1 µM”, the viability, T/C is 98% and 103% and 96.3%. Also, the viability, T/C (compound 3.16 µM) was 82.4% and 108% and 76.7%. The viability, T/C (compound 10 µM) was 50.8% and 105% and 60.7%.

Source of the values: PubChem BioAssay AID1919008 (Molecular Pharmacology Branch, DTP, NCI, 2023).
